Experimental findings from patent publication US8969360B2, “Compounds useful as inhibitors of ATR kinase” (Vertex Pharmaceuticals Incorporated, priority 2013, dated 2015) are described below.

Molecules are shown by their SMILES. Bounds are passed on as bounds.

For one experiment, the target named is T1, ATR kinase (Homo sapiens, UniProt Q13535).
T1 construct: Assays were carried out at 25° C. in the presence of 5 nM full-length ATR
In words: ATR Inhibition Assay (radioactive-phosphate incorporation). Particulars: Ki(app); 5 nM full-length ATR, 10 μM ATP, 800 μM target peptide, 25° C. It is filed as biochemical. Summed up:
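Full-length ATR (5 nM) in 50 mM Tris/HCl pH 7.5, 10 mM MgCl2, 1 mM DTT, with 800 μM peptide substrate and 10 μM [γ-33P]ATP at 25 °C. Compounds (from 15 μM final, 3-fold dilutions, 7% DMSO) were preincubated 10 min; the reaction was stopped at 24 h. 33P incorporation was captured on phosphocellulose; Ki(app) was from non-linear regression of initial rates.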

Experiment [1] deals with HCT116 colorectal cancer cells. The experiment in a line: Cisplatin Sensitization Assay (96 h cell viability MTS). It is filed as cell-based. Particulars: concentration of compound required to reduce the IC50 of Cisplatin alone by at least 3-fold; HCT116, 96 h MTS. Summed up:
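HCT116 cells received compound and cisplatin together as a full matrix of 2-fold dilutions, each from a 10 μM top final concentration. After 96 h at 37 °C and 5% CO2, viability was read by MTS (1 h, A490). The value is the compound concentration that lowers the cisplatin IC50 at least 3-fold.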

T1 sequence (Q13535 whole entry): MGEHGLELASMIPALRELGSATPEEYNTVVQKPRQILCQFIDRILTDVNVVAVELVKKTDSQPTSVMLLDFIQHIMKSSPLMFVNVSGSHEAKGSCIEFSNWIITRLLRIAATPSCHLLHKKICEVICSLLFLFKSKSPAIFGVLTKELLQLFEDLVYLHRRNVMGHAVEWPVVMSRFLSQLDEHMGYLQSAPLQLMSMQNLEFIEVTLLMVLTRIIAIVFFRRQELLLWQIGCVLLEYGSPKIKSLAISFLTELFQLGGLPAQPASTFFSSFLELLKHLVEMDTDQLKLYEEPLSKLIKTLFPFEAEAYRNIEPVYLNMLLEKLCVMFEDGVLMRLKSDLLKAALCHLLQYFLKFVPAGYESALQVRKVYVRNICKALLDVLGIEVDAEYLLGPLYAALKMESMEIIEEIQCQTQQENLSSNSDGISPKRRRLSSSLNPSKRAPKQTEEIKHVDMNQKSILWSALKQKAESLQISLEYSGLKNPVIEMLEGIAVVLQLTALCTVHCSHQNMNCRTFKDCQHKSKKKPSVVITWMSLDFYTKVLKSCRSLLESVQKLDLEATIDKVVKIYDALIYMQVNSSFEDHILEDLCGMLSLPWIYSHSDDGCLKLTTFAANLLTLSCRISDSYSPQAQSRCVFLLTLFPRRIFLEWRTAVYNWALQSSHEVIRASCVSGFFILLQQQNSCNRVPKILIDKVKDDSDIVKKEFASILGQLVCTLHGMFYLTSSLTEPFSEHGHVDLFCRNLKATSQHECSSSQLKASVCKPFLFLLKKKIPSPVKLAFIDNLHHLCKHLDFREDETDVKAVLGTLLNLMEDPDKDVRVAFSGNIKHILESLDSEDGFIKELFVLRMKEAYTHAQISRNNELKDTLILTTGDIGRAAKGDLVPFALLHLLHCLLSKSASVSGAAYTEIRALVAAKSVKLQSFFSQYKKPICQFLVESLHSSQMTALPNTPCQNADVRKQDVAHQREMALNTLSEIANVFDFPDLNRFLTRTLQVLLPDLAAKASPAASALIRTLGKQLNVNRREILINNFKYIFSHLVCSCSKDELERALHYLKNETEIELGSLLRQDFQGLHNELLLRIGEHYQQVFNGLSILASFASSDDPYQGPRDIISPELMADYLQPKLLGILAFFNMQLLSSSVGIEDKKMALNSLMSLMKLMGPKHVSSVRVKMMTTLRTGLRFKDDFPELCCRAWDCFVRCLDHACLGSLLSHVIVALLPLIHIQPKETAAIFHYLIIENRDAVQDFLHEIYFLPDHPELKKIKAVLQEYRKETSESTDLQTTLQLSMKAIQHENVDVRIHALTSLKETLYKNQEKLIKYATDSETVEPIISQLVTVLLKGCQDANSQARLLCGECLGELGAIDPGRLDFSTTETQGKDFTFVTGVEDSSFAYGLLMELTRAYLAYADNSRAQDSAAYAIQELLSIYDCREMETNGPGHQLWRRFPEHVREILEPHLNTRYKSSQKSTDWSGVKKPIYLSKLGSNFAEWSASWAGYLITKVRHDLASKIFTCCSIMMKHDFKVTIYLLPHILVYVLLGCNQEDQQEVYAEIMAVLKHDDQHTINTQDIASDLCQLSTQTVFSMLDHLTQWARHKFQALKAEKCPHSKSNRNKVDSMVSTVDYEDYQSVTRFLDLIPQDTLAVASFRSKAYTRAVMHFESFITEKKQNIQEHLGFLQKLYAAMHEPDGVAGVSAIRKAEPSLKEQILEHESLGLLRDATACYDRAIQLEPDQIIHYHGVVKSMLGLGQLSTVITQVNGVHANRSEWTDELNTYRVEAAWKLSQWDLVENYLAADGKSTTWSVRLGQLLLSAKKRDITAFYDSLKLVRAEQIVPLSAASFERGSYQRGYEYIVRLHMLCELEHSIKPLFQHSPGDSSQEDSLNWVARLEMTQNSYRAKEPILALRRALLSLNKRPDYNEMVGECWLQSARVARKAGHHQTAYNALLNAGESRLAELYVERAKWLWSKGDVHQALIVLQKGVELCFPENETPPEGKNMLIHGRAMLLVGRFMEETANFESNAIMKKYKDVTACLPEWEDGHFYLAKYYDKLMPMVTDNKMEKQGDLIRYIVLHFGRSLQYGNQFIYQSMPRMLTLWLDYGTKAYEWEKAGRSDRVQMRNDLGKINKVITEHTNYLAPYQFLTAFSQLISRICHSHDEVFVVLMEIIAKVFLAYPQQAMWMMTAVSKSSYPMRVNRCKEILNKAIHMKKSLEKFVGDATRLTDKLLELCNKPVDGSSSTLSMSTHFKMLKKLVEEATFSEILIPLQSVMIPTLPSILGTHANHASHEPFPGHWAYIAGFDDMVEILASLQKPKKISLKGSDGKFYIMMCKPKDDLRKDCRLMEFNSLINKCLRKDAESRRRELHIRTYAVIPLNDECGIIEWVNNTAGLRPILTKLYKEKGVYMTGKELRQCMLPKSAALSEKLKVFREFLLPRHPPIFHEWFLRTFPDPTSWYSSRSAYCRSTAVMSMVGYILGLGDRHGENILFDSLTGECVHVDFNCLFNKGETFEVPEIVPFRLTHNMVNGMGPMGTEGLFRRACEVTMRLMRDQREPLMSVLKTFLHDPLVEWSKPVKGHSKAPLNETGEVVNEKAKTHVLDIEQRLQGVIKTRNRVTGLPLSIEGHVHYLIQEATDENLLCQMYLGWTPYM

As to `COc1ccncc1NC(=O)c1c(N)nn2ccc(N3CCN(C)CC3)nc12` [I-O-78, 2-amino-N-(4-methoxypyridin-3-yl)-5-(4-methylpiperazin-1-yl)pyrazolo[1,5-a]pyrimidine-3-carboxamide], at ATR kinase, the Ki lay in the range of 10 to 1000 nM. The “Synergy with Cisplatin” value in experiment [1] is “+ (Compounds with a Cisplatin sensitization value >0.2 μM but <5 μM are marked with “+.”)”.

As for `Nc1nn2ccc(C(F)(F)F)nc2c1C(=O)Nc1cnccc1OCCN1CC2(COC2)C1` [I-O-38, N-(4-(2-(2-oxa-6-azaspiro[3.3]heptan-6-yl)ethoxy)pyridin-3-yl)-2-amino-5-(trifluoromethyl)pyrazolo[1,5-a]pyrimidine-3-carboxamide], the Ki at ATR kinase lay within 10 to 1000 nM. The “Synergy with Cisplatin” value in experiment [1] was “+ (Compounds with a Cisplatin sensitization value >0.2 μM but <5 μM are marked with “+.”)”.

With `Nc1nn2ccc(C(F)(F)F)nc2c1C(=O)Nc1cnccc1O[C@H]1CCNC1` [I-O-21, (S)-2-amino-N-(4-(pyrrolidin-3-yloxy)pyridin-3-yl)-5-(trifluoromethyl)pyrazolo[1,5-a]pyrimidine-3-carboxamide], the Ki at ATR kinase was in the range of 10 to 1000 nM. Also, the “Synergy with Cisplatin” value in experiment [1] is given as “++ (Compounds with a Cisplatin sensitization value>0.02 μM but <0.2 μM are marked with “++.”)”.

In the case of `COc1ccncc1NC(=O)c1c(N)nn2ccc(NCCN3CCCC3)nc12` [I-O-72, 2-amino-N-(4-methoxypyridin-3-yl)-5-((2-(pyrrolidin-1-yl)ethyl)amino)pyrazolo[1,5-a]pyrimidine-3-carboxamide], the Ki at ATR kinase is 10 to 1000 nM. Besides, the “Synergy with Cisplatin” value in experiment [1] is recorded as “+ (Compounds with a Cisplatin sensitization value >0.2 μM but <5 μM are marked with “+.”)”.

For `CN1CCN(c2ccncc2NC(=O)c2c(N)nn3ccc(C(F)(F)F)nc23)CC1` [I-N-1, 2-amino-N-(4-(4-methylpiperazin-1-yl)pyridin-3-yl)-5-(trifluoromethyl)pyrazolo[1,5-a]pyrimidine-3-carboxamide], on ATR kinase, the Ki lay in the range of 10 to 1000 nM. Also, the “Synergy with Cisplatin” value in experiment [1] was “+ (Compounds with a Cisplatin sensitization value >0.2 μM but <5 μM are marked with “+.”)”.

On to `Nc1nn2ccc(C(F)(F)F)nc2c1C(=O)Nc1cnccc1OCC1CCC(N)CC1` (centres unmarked) [I-O-37, 2-amino-N-(4-((4-aminocyclohexyl)methoxy)pyridin-3-yl)-5-(trifluoromethyl)pyrazolo[1,5-a]pyrimidine-3-carboxamide], for which, at ATR kinase, the Ki was in the range of 10 to 1000 nM. The “Synergy with Cisplatin” value in experiment [1] is recorded as “++ (Compounds with a Cisplatin sensitization value>0.02 μM but <0.2 μM are marked with “++.”)”.

`CN1CCC[C@@H]1COc1ccncc1NC(=O)c1c(N)nn2ccc(C(F)(F)F)nc12` [I-O-28, (R)-2-amino-N-(4-((1-methylpyrrolidin-2-yl)methoxy)pyridin-3-yl)-5-(trifluoromethyl)pyrazolo[1,5-a]pyrimidine-3-carboxamide]: the Ki at ATR kinase was in the range of 10 to 1000 nM. Also, the “Synergy with Cisplatin” value in experiment [1] is reported as “++ (Compounds with a Cisplatin sensitization value>0.02 μM but <0.2 μM are marked with “++.”)”.

Take `COc1ccncc1NC(=O)c1c(N)nn2ccc(C(C)(C)C#N)nc12` [I-O-52, 2-amino-5-(2-cyanopropan-2-yl)-N-(4-methoxypyridin-3-yl)pyrazolo[1,5-a]pyrimidine-3-carboxamide]: the Ki at ATR kinase fell in the range of 10 to 1000 nM. Further, the “Synergy with Cisplatin” value in experiment [1] is given as “+++ (Compounds with a Cisplatin sensitization value of <0.02 μM are marked with “+++.”)”.

Turning to `CN(C)CCOc1cc(Cl)ncc1NC(=O)c1c(N)nn2ccc(C(F)(F)F)nc12` [I-O-50, 2-amino-N-(6-chloro-4-(2-(dimethylamino)ethoxy)pyridin-3-yl)-5-(trifluoromethyl)pyrazolo[1,5-a]pyrimidine-3-carboxamide], the Ki on ATR kinase was 10 to 1000 nM. In addition, the “Synergy with Cisplatin” value in experiment [1] was “++ (Compounds with a Cisplatin sensitization value>0.02 μM but <0.2 μM are marked with “++.”)”.

Take `COCCOc1ccncc1NC(=O)c1c(N)nn2ccc(C(F)(F)F)nc12` [I-O-8, 2-amino-N-(4-(2-methoxyethoxy)pyridin-3-yl)-5-(trifluoromethyl)pyrazolo[1,5-a]pyrimidine-3-carboxamide]: the Ki on ATR kinase fell in the range of 10 to 1000 nM. Further, the “Synergy with Cisplatin” value in experiment [1] is on record as “+++ (Compounds with a Cisplatin sensitization value of <0.02 μM are marked with “+++.”)”.

For `Nc1nn2ccc(C(F)(F)F)nc2c1C(=O)Nc1cnccc1OC1CNC1` [I-O-18, 2-amino-N-(4-(azetidin-3-yloxy)pyridin-3-yl)-5-(trifluoromethyl)pyrazolo[1,5-a]pyrimidine-3-carboxamide], on ATR kinase, the Ki was in the range of 10 to 1000 nM. The “Synergy with Cisplatin” value in experiment [1] is recorded as “++ (Compounds with a Cisplatin sensitization value>0.02 μM but <0.2 μM are marked with “++.”)”.

Consider `CNCc1ccn2nc(N)c(C(=O)Nc3cnccc3OC)c2n1` [I-O-66, 2-amino-N-(4-methoxypyridin-3-yl)-5-((methylamino)methyl)pyrazolo[1,5-a]pyrimidine-3-carboxamide], for which, on ATR kinase, the Ki is 10 to 1000 nM. The “Synergy with Cisplatin” value in experiment [1] was “++ (Compounds with a Cisplatin sensitization value>0.02 μM but <0.2 μM are marked with “++.”)”.

In the case of `Nc1nn2ccc(C(F)(F)F)nc2c1C(=O)Nc1cnccc1OCCCO` [I-O-14, 2-amino-N-(4-(3-hydroxypropoxy)pyridin-3-yl)-5-(trifluoromethyl)pyrazolo[1,5-a]pyrimidine-3-carboxamide], the Ki at ATR kinase is under 10 nM. Further, the “Synergy with Cisplatin” value in experiment [1] is “+++ (Compounds with a Cisplatin sensitization value of <0.02 μM are marked with “+++.”)”.

For the molecule `CN(C)Cc1ccc(Oc2ccncc2NC(=O)c2c(N)nn3ccc(C(F)(F)F)nc23)cn1` [I-O-45, 2-amino-N-(4-((6-((dimethylamino)methyl)pyridin-3-yl)oxy)pyridin-3-yl)-5-(trifluoromethyl)pyrazolo[1,5-a]pyrimidine-3-carboxamide], the Ki on ATR kinase was in the range of 10 to 1000 nM. In addition, the “Synergy with Cisplatin” value in experiment [1] is given as “+++ (Compounds with a Cisplatin sensitization value of <0.02 μM are marked with “+++.”)”.

Take `COc1ccncc1NC(=O)c1c(N)nn2ccc(NCC3CCCN3C)nc12` (centres unmarked) [I-O-71]: the Ki at ATR kinase fell in the range of 10 to 1000 nM. The “Synergy with Cisplatin” value in experiment [1] is listed as “+ (Compounds with a Cisplatin sensitization value >0.2 μM but <5 μM are marked with “+.”)”.

As to `Nc1nn2ccc(C(F)(F)F)nc2c1C(=O)Nc1cnccc1OCC(F)(F)F` [I-O-3, 2-amino-N-(4-(2,2,2-trifluoroethoxy)pyridin-3-yl)-5-(trifluoromethyl)pyrazolo[1,5-a]pyrimidine-3-carboxamide], on ATR kinase, the Ki is under 10 nM. Also, in experiment [1], the “Synergy with Cisplatin” value was “+++ (Compounds with a Cisplatin sensitization value of <0.02 μM are marked with “+++.”)”.

With `COc1cc(Cl)ncc1NC(=O)c1c(N)nn2ccc(OCCN(C)C)nc12` [I-O-65, 2-amino-N-(6-chloro-4-methoxypyridin-3-yl)-5-(2-(dimethylamino)ethoxy)pyrazolo[1,5-a]pyrimidine-3-carboxamide], the Ki at ATR kinase was in the range of 10 to 1000 nM. Further, the “Synergy with Cisplatin” value in experiment [1] is “+ (Compounds with a Cisplatin sensitization value >0.2 μM but <5 μM are marked with “+.”)”.

As to `Nc1nn2ccc(C(F)(F)F)nc2c1C(=O)Nc1cnccc1O[C@H]1CCOC1` [I-O-10, (S)-2-amino-N-(4-((tetrahydrofuran-3-yl)oxy)pyridin-3-yl)-5-(trifluoromethyl)pyrazolo[1,5-a]pyrimidine-3-carboxamide], the Ki on ATR kinase lay in the range of 10 to 1000 nM. For the same molecule, the “Synergy with Cisplatin” value in experiment [1] is recorded as “+++ (Compounds with a Cisplatin sensitization value of <0.02 μM are marked with “+++.”)”.

For the molecule `Nc1nn2ccc(C(F)(F)F)nc2c1C(=O)Nc1cnccc1Oc1cccnc1` [I-O-15, 2-amino-N-(4-(pyridin-3-yloxy)pyridin-3-yl)-5-(trifluoromethyl)pyrazolo[1,5-a]pyrimidine-3-carboxamide], the Ki on ATR kinase is under 10 nM. The “Synergy with Cisplatin” value in experiment [1] was “+++ (Compounds with a Cisplatin sensitization value of <0.02 μM are marked with “+++.”)”.
